According to PubChem BioAssay (NCI):
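Exposure lasted 48 hours, with cells grown in 96-well plates and compounds tested at five concentrations. GI50 is the concentration that inhibits growth by half. TGI denotes the concentration required for complete inhibition of growth.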

Assays:
Experiment in all cases: NCI tumour cell line growth inhibition, 48 h
EKVX NSCLC = test system: EKVX NSCLC
OVCAR-5 ovarian = test system: OVCAR-5 ovarian
HCT-15 colon = test system: HCT-15 colon
HCC-2998 colon = test system: HCC-2998 colon
SNB-19 CNS = test system: SNB-19 CNS
COLO 205 colon = test system: COLO 205 colon
UACC-257 melanoma = test system: UACC-257 melanoma
NCI-H522 lung = test system: NCI-H522 lung
UACC-62 melanoma = test system: UACC-62 melanoma
A498 renal = test system: A498 renal
SNB-75 CNS = test system: SNB-75 CNS
RXF 393 renal = test system: RXF 393 renal
DU-145 prostate = test system: DU-145 prostate
SF-295 CNS = test system: SF-295 CNS
T-47D breast = test system: T-47D breast
A549 NSCLC = test system: A549 NSCLC
SW-620 colon = test system: SW-620 colon
HOP-92 NSCLC = test system: HOP-92 NSCLC
HL-60(TB) leukemia = test system: HL-60(TB) leukemia
NCI-H460 lung = test system: NCI-H460 lung
CAKI-1 renal = test system: CAKI-1 renal
SN12C renal = test system: SN12C renal
SF-268 CNS = test system: SF-268 CNS
KM12 colon = test system: KM12 colon
SF-539 CNS = test system: SF-539 CNS
SK-MEL-5 melanoma = test system: SK-MEL-5 melanoma
BT-549 breast = test system: BT-549 breast
MCF7 breast = test system: MCF7 breast
SK-OV-3 ovarian = test system: SK-OV-3 ovarian
PC-3 prostate = test system: PC-3 prostate
UO-31 renal = test system: UO-31 renal
MDA-MB-435 = test system: MDA-MB-435
MALME-3M melanoma = test system: MALME-3M melanoma
SK-MEL-28 melanoma = test system: SK-MEL-28 melanoma
M14 melanoma = test system: M14 melanoma
MDA-MB-231 breast = test system: MDA-MB-231 breast
CCRF-CEM leukemia = test system: CCRF-CEM leukemia
IGROV1 ovarian = test system: IGROV1 ovarian
HT29 colon = test system: HT29 colon
LOX IMVI melanoma = test system: LOX IMVI melanoma
MOLT-4 leukemia = test system: MOLT-4 leukemia
ACHN renal = test system: ACHN renal
OVCAR-3 ovarian = test system: OVCAR-3 ovarian
SR leukemia = test system: SR leukemia
OVCAR-4 ovarian = test system: OVCAR-4 ovarian
NCI-H23 lung = test system: NCI-H23 lung
TK-10 renal = test system: TK-10 renal
SK-MEL-2 melanoma = test system: SK-MEL-2 melanoma
NCI-H226 lung = test system: NCI-H226 lung

COc1cc(C2CC(c3cccc(Nc4ccncc4)c3)=NN2c2ccccc2)cc(OC)c1OC (stereo not drawn)
GI50 (EKVX NSCLC): 1800 nM
TGI (EKVX NSCLC): 4160 nM
GI50 (OVCAR-5 ovarian): 2170 nM
TGI (OVCAR-5 ovarian): 5230 nM
GI50 (HCT-15 colon): 1910 nM
TGI (HCT-15 colon): 3750 nM
GI50 (HCC-2998 colon): 1800 nM
TGI (HCC-2998 colon): 3300 nM
GI50 (SNB-19 CNS): 1640 nM
TGI (SNB-19 CNS): 3290 nM
GI50 (COLO 205 colon): 1800 nM
TGI (COLO 205 colon): 4250 nM
GI50 (UACC-257 melanoma): 1950 nM
TGI (UACC-257 melanoma): 3820 nM
GI50 (NCI-H522 lung): 1750 nM
TGI (NCI-H522 lung): 3620 nM
GI50 (UACC-62 melanoma): 1730 nM
TGI (UACC-62 melanoma): 3180 nM
GI50 (A498 renal): 1630 nM
TGI (A498 renal): 7140 nM
GI50 (SNB-75 CNS): 1420 nM
TGI (SNB-75 CNS): 3740 nM
GI50 (RXF 393 renal): 1560 nM
TGI (RXF 393 renal): 2950 nM
GI50 (DU-145 prostate): 1790 nM
TGI (DU-145 prostate): 3400 nM
GI50 (SF-295 CNS): 1810 nM
TGI (SF-295 CNS): 3280 nM
GI50 (T-47D breast): 2120 nM
TGI (T-47D breast): 6610 nM
GI50 (A549 NSCLC): 1730 nM
TGI (A549 NSCLC): 3530 nM
GI50 (SW-620 colon): 1660 nM
TGI (SW-620 colon): 3160 nM
GI50 (HOP-92 NSCLC): 1410 nM
TGI (HOP-92 NSCLC): 2940 nM
GI50 (HL-60(TB) leukemia): 1720 nM
TGI (HL-60(TB) leukemia): 3650 nM
GI50 (NCI-H460 lung): 1770 nM
TGI (NCI-H460 lung): 3270 nM
GI50 (CAKI-1 renal): 1550 nM
TGI (CAKI-1 renal): 3010 nM
GI50 (SN12C renal): 1600 nM
TGI (SN12C renal): 3050 nM
GI50 (SF-268 CNS): 1700 nM
TGI (SF-268 CNS): 3450 nM
GI50 (KM12 colon): 1720 nM
TGI (KM12 colon): 3460 nM
GI50 (SF-539 CNS): 1710 nM
TGI (SF-539 CNS): 3110 nM
GI50 (SK-MEL-5 melanoma): 1780 nM
TGI (SK-MEL-5 melanoma): 3170 nM
GI50 (BT-549 breast): 1800 nM
TGI (BT-549 breast): 3560 nM
GI50 (MCF7 breast): 1840 nM
TGI (MCF7 breast): 4040 nM
GI50 (SK-OV-3 ovarian): 1780 nM
TGI (SK-OV-3 ovarian): 3500 nM
GI50 (PC-3 prostate): 1790 nM
TGI (PC-3 prostate): 4230 nM
GI50 (UO-31 renal): 1420 nM
TGI (UO-31 renal): 2810 nM
GI50 (MDA-MB-435): 1610 nM
TGI (MDA-MB-435): 3120 nM
GI50 (MALME-3M melanoma): 1610 nM
TGI (MALME-3M melanoma): 3030 nM
GI50 (SK-MEL-28 melanoma): 1770 nM
TGI (SK-MEL-28 melanoma): 3300 nM
GI50 (M14 melanoma): 1910 nM
TGI (M14 melanoma): 4120 nM
GI50 (MDA-MB-231 breast): 1520 nM
TGI (MDA-MB-231 breast): 2890 nM
GI50 (CCRF-CEM leukemia): 2930 nM
TGI (CCRF-CEM leukemia): 8530 nM
GI50 (IGROV1 ovarian): 1770 nM
TGI (IGROV1 ovarian): 3610 nM
GI50 (HT29 colon): 1930 nM
TGI (HT29 colon): 4530 nM
GI50 (LOX IMVI melanoma): 1760 nM
TGI (LOX IMVI melanoma): 3150 nM
GI50 (MOLT-4 leukemia): 1860 nM
TGI (MOLT-4 leukemia): 4700 nM
GI50 (ACHN renal): 1700 nM
TGI (ACHN renal): 3110 nM
GI50 (OVCAR-3 ovarian): 1660 nM
TGI (OVCAR-3 ovarian): 3140 nM
GI50 (SR leukemia): 1560 nM
TGI (SR leukemia): 3580 nM
GI50 (OVCAR-4 ovarian): 1710 nM
TGI (OVCAR-4 ovarian): 3730 nM
GI50 (NCI-H23 lung): 1940 nM
TGI (NCI-H23 lung): 3870 nM
GI50 (TK-10 renal): 1790 nM
TGI (TK-10 renal): 3420 nM
GI50 (SK-MEL-2 melanoma): 1960 nM
TGI (SK-MEL-2 melanoma): 3800 nM
GI50 (NCI-H226 lung): 2110 nM
TGI (NCI-H226 lung): 5270 nM
